The results in this text go back to PubChem BioAssay (NCI).

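Grown in 96-well plates, cells were treated for 48 hours with each compound at five concentrations. Insufficient inhibition: endpoint recorded as highest concentration tested. At the TGI there is no net growth.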

What all share (test): inhibition of tumour cell growth, NCI panel, 48 h
In assay [1] the test system is U251 CNS.
Assay [2] relates to SR leukemia.
Assay [3] deals with DMS 114 small cell lung.
Assay [4] relates to OVCAR-8 ovarian.
The test system of assay [5] is DMS 273 small cell lung.
In assay [6] the test system is HCT-15 colon.
Assay [7] deals with NCI-H460 lung.
The test system of assay [8] is KM20L2 colon.
Assay [9] concerns SW-620 colon.
Assay [10] has as its system UO-31 renal.
Assay [11] relates to MALME-3M melanoma.

For the compound `c1ccc(C2=NN3CN(N2)c2ccccc2OCCCOc2ccccc23)cc1`, the TGI in [1], in assay [2], in [3], in assay [4], in [5] and in assay [6] was greater than 100 µM each time. Also, the TGI in [7], in [8], in [9], in assay [10] and in [11] was greater than 100 µM each time.

`CC(=O)N(C(C)=O)n1c(Cc2ccc(Cl)cc2)nn(C(C)=O)c1=O`: the TGI in [1], in assay [2], in assay [4], in assay [6], in [7] and in [9] was greater than 100 µM each time. In addition, the TGI in assay [10] and in assay [11] was greater than 100 µM throughout.

As to `COc1cn2c(cc1=O)COc1ccc(-c3ccccc3)cc1-2`, the TGI in assay [1], in [2], in assay [4], in assay [6], in [7] and in assay [9] was greater than 100 µM throughout. Further, the TGI in assay [10] is greater than 100 µM; in [11] it was greater than 84.1 µM.

Consider `C=CCc1c(O)c2ccccc2[nH]c1=O`, for which the TGI in assay [1], in assay [2], in [4], in [6], in [7] and in assay [9] was greater than 100 µM each time. The TGI in assay [10] and in [11] was greater than 100 µM each time.

Regarding `c1ccc2c(c1)CC1c3[nH]c4ccccc4c3CCN21` (stereo unspecified), the TGI in assay [1], in assay [2], in assay [4], in assay [6], in assay [7] and in [9] was greater than 10 µM in each case. Also, the TGI in [10] and in [11] was greater than 10 µM each time.

`O=C(Nc1cccc2nsnc12)c1cc2c(cc1Cl)Sc1nccn1S2(=O)=O`: the TGI in [1] was 17.6 µM; in [2] it was greater than 21.8 µM; in assay [4] it was 8.94 µM; in assay [6], 25.6 µM; in [7] it was 5.98 µM; in [9], greater than 60.7 µM. The TGI in assay [10] is 4.41 µM; in assay [11], greater than 100 µM.

Turning to `O=C1c2cc(Cl)ccc2-n2c(noc2=O)C2CSCN12` (stereo unspecified), the TGI in assay [1], in [2], in [4], in assay [6], in assay [7] and in assay [9] was greater than 100 µM throughout. The TGI in [10] and in assay [11] was greater than 100 µM in each case.

Take `COc1ccc(C2CC(c3c(C)nn(-c4ccccc4)c3-c3ccc(C)cc3O)=NN2c2ccccc2)cc1` (stereo unspecified): the TGI in assay [1] is greater than 100 µM; in [2] it was greater than 100 µM; in [4], greater than 100 µM; in assay [6], greater than 100 µM; in assay [7] it was greater than 41.7 µM; in assay [9], greater than 100 µM. Besides, the TGI in assay [10] and in [11] was greater than 100 µM each time.

Consider `CC1=NN(c2ccc(C)cc2)C2(C1)SCC(=O)N2c1nc2ccccc2s1` (stereo unspecified), for which the TGI in assay [1] is 65.5 µM; in assay [2], 28.1 µM; in assay [4] it was greater than 100 µM; in [6], greater than 100 µM; in assay [7], 56.5 µM; in assay [9] it was greater than 100 µM. Also, the TGI in assay [10] and in assay [11] was greater than 100 µM throughout.

On to `CN(C)CCCn1c2ccccc2c2cnccc21`, for which the TGI in assay [1] is greater than 100 µM; in assay [2], 43.4 µM; in assay [4], greater than 100 µM; in assay [6], greater than 100 µM; in assay [7], 67 µM; in assay [9] it was greater than 100 µM. Moreover, the TGI turned out to be 47.9 µM in assay [10] and 83.3 µM in assay [11].

On to `CCOC(=O)c1c2c(n(C)c1-c1ccccc1)C(=O)C(C)=CC2=O`, for which the TGI is 22.8 µM in assay [1]; 9.39 µM in [2]; 15.4 µM in assay [4]; 17.7 µM in assay [6]; 47.8 µM in assay [7]; 19.8 µM in assay [9]. The TGI came out at 26.6 µM in [10] and 22.8 µM in assay [11].

Turning to `C=C(CCOC)CCC1CCCCC(=C)C1=O` (stereo unspecified), the TGI in assay [1], in assay [2], in assay [4], in assay [6], in assay [7] and in assay [9] was greater than 100 µM in each case. For the same compound, the TGI in assay [10] and in [11] was greater than 100 µM in each case.

On to `Cc1cs/c(=N\C(P(=O)(O)O)P(=O)(O)O)n1C`, for which the TGI in assay [1], in [2], in assay [4], in [6], in assay [7] and in assay [9] was greater than 100 µM throughout. The TGI in [10] and in assay [11] was greater than 100 µM in each case.

Take `COc1ccc(CNc2nc(NCc3ccc(OC)cc3)nc(NC3CCCCC3)n2)cc1`: the TGI in assay [1] was greater than 100 µM; in assay [2], greater than 100 µM; in assay [4] it was 7.17 µM; in assay [6], 9.52 µM; in assay [7] it was 7.78 µM; in assay [9] it was greater than 100 µM. The TGI in [10] came to 96.6 µM; in assay [11], 1.61 µM.

`O=[N+]([O-])c1ccc2nc3ccc([N+](=O)[O-])cn3c2c1`: the TGI in assay [1], in assay [2], in assay [4], in assay [6], in [7] and in assay [9] was greater than 100 µM each time. In addition, the TGI in assay [10] and in assay [11] was greater than 100 µM each time.

With `COc1ccc(/C=N/Nc2[nH]c(=S)nc3[nH]ncc23)cc1`, the TGI in assay [1] is 40.7 µM; in assay [2], greater than 100 µM; in [4] it was greater than 100 µM; in assay [6], greater than 100 µM; in [7], greater than 100 µM; in assay [9] it was greater than 100 µM. The results for the TGI in assay [10] and in [11] were greater than 100 µM and 99.4 µM, respectively.
